From patent publication US20070026402A1, “Genetic marker of response to atypical antipsychotics and antidepressants methods for use thereof” (priority 2003, published 2007)
“Also recorded” adds a separate entry of the source.

Tests used:
[1] = system: Serum prolactin
[2] = system: PTSD patients; assay: General Health Questionnaire-28 (GHQ) outcome of paroxetine treatment in PTSD; assay type: in vivo, human; conditions: for GHQ total score, baseline vs treatment: 8 weeks
Excerpt: Sixty-five unrelated male Caucasian patients with the diagnosis of PTSD were recruited for study. All subjects were Vietnam combat veterans who had served in the Australian armed forces. None were being treated with psychotropic medication. […] confirmed by all patients exceeding the clinical cut-off score of 94 on the Mississippi Scale for combat-related posttraumatic stress disorder (Zatzick et al., 1997). The validity and reliability of the Mississippi scale ate well established in veterans (Keane et al., 1988). Patients then underwent clinical history taking by a psychiatrist or by a clinical nurse (EP). Demographic data and ethnic background were also obtained. […] The General Health Questionnaire-28 (GHQ) was administered at baseline (0-7 days on paroxetine) and at the end of treatment (8 weeks after commencement on paroxetine). This questionnaire measures four psychopathological factors particularly relevant to PTSD and its comorbid psychiatric conditions: somatic concerns (GHQ1), anxiety/insomnia (GHQ2), social dysfunction (GHQ3) and depression (GHQ4). The GHQ has been widely validated internationally as a means of detecting psychiatric […] sensitive to change (Ormel et al., 1989). The GHQ has utility as a follow-up measure of veteran mental health following exposure to combat (Deahl et al., 1994) and is sensitive to changes in combat-related PTSD symptoms (Ward, 1997). Information coded from the interviews, GHQ and genotyping results were entered into a computer database. Nominal data were analyzed by Yates corrected X^2 test and continuous data, with repeated measures, were analyzed by paired t-test or by analysis of variance. P values≦0.05 were considered statistically significant.

[3] = system: PTSD patients; assay: Discontinuation and adverse events during paroxetine treatment in PTSD; assay type: in vivo, human; conditions: for Subjects with adverse events relating to anxiety, insomnia, headache or tremor / Subjects with erectile dysfunction, decreased libido or delayed ejaculation: group that discontinued
Experimental: Sixty-five unrelated male Caucasian patients with the diagnosis of PTSD were recruited for study. All subjects were Vietnam combat veterans who had served in the Australian armed forces. None were being treated with psychotropic medication.
After initial assessment, patients were medically examined and then were started on 20 mg/day of paroxetine for the first two weeks followed by a 40 mg/day dose for the remaining six weeks.
Patient assessments were conducted blind to their DRD2 allelic status. In addition to their standard treatment, patients were monitored twice for adverse events. Drug compliance was checked by pill count. All participants provided written informed consent and were able to terminate treatment without prejudice. However, those terminating participation were asked to provide reasons for their withdrawal. Institutional ethics approval was obtained from the Greenslopes Private Hospital.

[4] = system: PTSD; conditions: compared to 32% with placebo; cited from earlier work

CN1CCN(C2=Nc3cc(Cl)ccc3Nc3ccccc32)CC1 [Clozapine]
Number of patients exceeding hyperprolactinemia cut-off levels ([1]; Clozapine and Olanzapine patients combined): 7
Hyperprolactinemic patients as share of the sample ([1]; Clozapine and Olanzapine patients combined, sample of 144): 5%
Prolactin levels in A1+ compared to A1− allelic patients ([1]; P=0.04): more than two fold higher

Fc1ccc([C@@H]2CCNC[C@H]2COc2ccc3c(c2)OCO3)cc1 [paroxetine]
GHQ3 (social dysfunction) subscale score over the course of treatment ([2]; A1+ allelic subjects): significant improvement
GHQ3 (social dysfunction) subscale score over the course of treatment ([2]; A1− allelic subjects): no such improvement
GHQ total score, baseline vs treatment ([2]; A1− patients): no significant improvement; also recorded: did not
GHQ total score, baseline vs treatment ([2]; total 45 patients): significant improvement
GHQ1 (somatic concerns) subscale score over the course of treatment ([2]; total patient group): not significantly reduced
GHQ2 (anxiety/insomnia) subscale score over the course of treatment ([2]; total patient group): significantly reduced
GHQ3 (social dysfunction) subscale score over the course of treatment ([2]; total patient group): significant improvement
GHQ4 (depression) subscale score during treatment ([2]; total patient group): significant improvement
Number of patients who discontinued treatment ([3]; A1+ (of 26)): 4
Subjects with adverse events relating to anxiety, insomnia, headache or tremor ([3]; A1+): 2
Subjects with erectile dysfunction, decreased libido or delayed ejaculation ([3]; A1+): 2
Number of patients who discontinued treatment ([3]; A1− (of 39)): 16
Subjects with adverse events relating to anxiety, insomnia, headache or tremor ([3]; A1−): 11
Subjects with erectile dysfunction, decreased libido or delayed ejaculation ([3]; A1−): 5
Number of patients who discontinued treatment ([3]; of the 65 patients who entered the study): 20

CN[C@H]1CC[C@@H](c2ccc(Cl)c(Cl)c2)c2ccccc21 [sertraline]
Responder rate [4]: 53%
